In patent publication US20050153923A1, “Targeted drug delivery using EphA2 or EphA4 binding moieties” (priority 2003, published 2005):
Entries after “also recorded” stand apart in the source; their conditions may differ.

Legend:
MDA-MB-231 cells = experiment: Soft agar colonization of MDA-MB-231 cells after antisense transfection; type: cell-based
Experimental: Monolayers of MDA-MB-231 cells were transfected with 2 μg/ml of EphA2 antisense or inverse antisense (IAS) oligonucleotides at 37° C. for 24 hours. […] The membranes were stripped and reprobed with paxillin antibodies as a loading control (B). The relative mobility of molecular mass standards is shown on the left of panels A and B. (C) MDA-MB-231 cell monolayers, treated with antisense oligonucleotides as detailed above, were suspended in soft agar for 7 days before microscopic analysis of colony formation. […] Results are reported as colonies per high-powered field (HPF).
An antisense oligonucleotide-based approach that decreased EphA2 expression in tumor cells independent of EphA2 activation was developed. […] Inverted antisense oligonucleotides (5′-[…]-3′; SEQ ID NO:109) provided a control. The cells were transfected with oligonucleotides (2 μg/ml) using Lipofectamine PLUS Reagent (Life Technologies, Inc.) according to the manufacturer's protocol. Twenty-four hours post-transfection, the cells were divided. Half of the cells were seeded into soft agar, and the remaining cells were extracted and subjected to Western blot analysis.
MDA-MB-231 cells were suspended in soft agar. […] Colony formation was scored microscopically using an Olympus CK-3 inverted phase-contrast microscope outfitted with a 40× objective. Clusters containing at least three cells were scored as a positive. […]

EphA2 = EphA2 expression in MDA-MB-231 cells after antisense transfection (Western blot); type: cell-based; conditions: 2 μg/ml oligonucleotide, 24 hours
MCF-7^EphA2 cells [1] = experiment: Soft agar colonization of MCF-7^EphA2 cells; type: cell-based; conditions: TAM 1 μM, EA2 10 μg/ml
Experimental: (B) MCF-7 (circles) or MCF-7^EphA2 cells (squares) were implanted into the mammary fatpad (n=15 mice per group) in the presence of supplemental estrogen.
MCF-7^EPhA2 cells were incubated in the presence of 3 μg/ml of EA2 for the time indicated prior to sample extraction and Western blot analyses with an EphA2-specific antibody (D7). (B) The membrane was stripped and re-probed with a β-catenin-specific antibody as a loading control.
(§1) Growth assays were conducted as follows. MCF-7^neo (control cells) or MCF7^EphA2 cells were seeded in 96-well plates. […] Colony formation in soft agar was performed as previously described (Zelinski et al., 2001, Cancer Res. 61: 2301-6) and scored microscopically, defining clusters of at least three cells as a positive. The data represent the average of ten separate high-power microscopic fields from each sample and representative of at least three separate experiments. Error bars represent the standard error of the mean of at least three different experiments as determined using Microsoft Excel software.
Growth MCF-7^EphA2 cells which had decreased EphA2 expression levels was assayed in soft agar.

control MCF-7 cells = experiment: Soft agar colonization of control MCF-7 cells; type: cell-based; conditions: TAM 1 μM; EA2 10 μg/ml; FIG. 13C
Experimental: as §1, with “software. […]” for “software.”

MCF-7^EphA2 cells [2] = experiment: Tumorigenic potential of MCF-7^EphA2 vs control cells in mammary fat pad of athymic mice under tamoxifen; type: in vivo; conditions: tamoxifen 1 mg oral gavage 6 days per week, from 17 days post-implantation; supplemental estrogen; FIG. 11B
Experimental: (B) MCF-7 (circles) or MCF-7^EphA2 cells (squares) were implanted into the mammary fatpad (n=15 mice per group) in the presence of supplemental estrogen. […] Tumor volume of tamoxifen treated (black circles and squares) and saline treated (white circles and squares) animals was measured at the indicated time.
Consistent with increased soft agar colonization, orthotopically implanted MCF-7^EphA2 cells formed larger, more rapidly growing tumors in vivo. Six to eight week-old athymic (nu/nu) mice were purchased from Harlan Sprague Dawley (Indianapolis, Ind.). When indicated, a controlled release estradiol pellet (0.72 mg 17β-estradiol, 60-day formulation) was injected subcutaneously via a sterile 14-gauge trocar 24 hours prior to tumor implantation and pellets were replaced every 60 days for those experiments spanning>60 days in duration. 1×10^6 MCF-7^neo or MCF7^EphA2 cells were injected into the mammary fat pad under direct visualization.

5′-CCAGCAGTACCGCTTCCTTGCCCTGCGGCCG-3′ (all phosphorothioate, sugars by position and methylation of C not given here; listed as Homo Sapiens) [EphA2 antisense oligonucleotides, phosphorothioate-modified antisense oligonucleotides unique to EphA2]
Decrease of soft agar colonization vs matched controls (MDA-MB-231 cells; 2 μg/ml oligonucleotide, 7 days in soft agar, FIG. 14C): at least 60%
Colony formation in soft agar vs inverted antisense control (MDA-MB-231 cells; P<0.002): significantly impaired
EphA2 expression / protein level after oligonucleotide transfection (EphA2): selectively decreased EphA2 expression in MDA-MB-231 cells; also recorded: decreases EphA2 protein levels

5′-GCCGCGTCCCGTTCCTTCACCATGACGACC-3′ (listed as DNA, chemistry not given here; listed as Homo sapiens) [IAS, inverted antisense control oligonucleotide, reference compound]
EphA2 expression / protein level after oligonucleotide transfection (EphA2): did not

C[C@]12CC[C@@H]3c4ccc(O)cc4CC[C@H]3[C@@H]1CC[C@@H]2O [estradiol, 17β-estradiol, reference compound]
Soft agar colonization response / tamoxifen sensitivity, MCF-7^EphA2 cells (MCF-7^EphA2 cells [1]; 1 μM 17β-estradiol, FIGS. 11A, 13C (11A also MCF-7)): overcame the inhibitory effects of tamoxifen

tamoxifen [reference compound]
Inhibition / decrease of soft agar colonization, MCF-7^EphA2 cells (MCF-7^EphA2 cells [1]; 14 days): 25%
Soft agar colonization response, control MCF-7 cells (control MCF-7 cells): sensitive to tamoxifen
Sensitivity of tumorigenic potential to tamoxifen, MCF-7^EphA2 vs control (MCF-7^neo) (MCF-7^EphA2 cells [2]): less sensitive to tamoxifen; also recorded: lower inhibitory effects of tamoxifen on MCF-7^EphA2 relative to control cells
